Values quoted from earlier work as cited in patent US20140370149A1, “METHODS FOR USING REBAUDIOSIDE C AS A FLAVOR ENHANCER” (International Flavors & Fragrances Inc., priority 2011, published 2014).

Conditions: sweetness relative to sucrose

C=C1C[C@@]23CC[C@H]4[C@@](C)(CCC[C@@]4(C)C(=O)O[C@@H]4O[C@H](CO)[C@@H](O)[C@H](O)[C@H]4O)[C@@H]2CC[C@]1(O[C@@H]1O[C@H](CO)[C@@H](O)[C@H](O)[C@H]1O[C@@H]1O[C@@H](C)[C@H](O)[C@@H](O)[C@H]1O)C3 [dulcoside A]
times sweeter than sucrose: 30 times
